Source: ChEMBL document CHEMBL1149707, “Structure-activity relationship studies of carboxamido-biaryl ethers as opioid receptor antagonists (OpRAs). Part 1” (Bioorg Med Chem Lett, 2007)

How the values were obtained:
[1] = molecular target: T1, Delta-type opioid receptor (Homo sapiens, UniProt P41143); assay: Displacement of [3H]bremazocine from human delta opioid receptor expressed in CHO cells in presence of high sodium by SPA; type: cell-based
Mu-type opioid receptor [2] = molecular target: T2, Mu-type opioid receptor (Homo sapiens, UniProt P35372); assay: Displacement of [3H]diprenorphine from human mu opioid receptor expressed in CHO cells in presence of high sodium by SPA; type: cell-based
T2 sequence (P35372 whole entry): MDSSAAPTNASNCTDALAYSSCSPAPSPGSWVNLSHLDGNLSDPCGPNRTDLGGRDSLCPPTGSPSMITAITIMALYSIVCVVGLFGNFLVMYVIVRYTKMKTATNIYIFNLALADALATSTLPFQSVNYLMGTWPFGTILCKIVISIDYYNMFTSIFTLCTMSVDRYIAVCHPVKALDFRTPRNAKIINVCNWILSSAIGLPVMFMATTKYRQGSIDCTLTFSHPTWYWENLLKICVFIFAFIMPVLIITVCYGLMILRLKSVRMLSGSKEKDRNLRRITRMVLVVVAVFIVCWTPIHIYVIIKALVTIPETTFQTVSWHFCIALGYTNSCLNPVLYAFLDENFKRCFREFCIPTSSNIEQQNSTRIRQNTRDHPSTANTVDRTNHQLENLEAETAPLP

[3] = molecular target: T3, Kappa-type opioid receptor (Homo sapiens, UniProt P41145); assay: Displacement of [3H]diprenorphine from human kappa opioid receptor expressed in CHO cells in presence of high sodium by SPA; type: cell-based
T3 sequence (P41145 whole entry): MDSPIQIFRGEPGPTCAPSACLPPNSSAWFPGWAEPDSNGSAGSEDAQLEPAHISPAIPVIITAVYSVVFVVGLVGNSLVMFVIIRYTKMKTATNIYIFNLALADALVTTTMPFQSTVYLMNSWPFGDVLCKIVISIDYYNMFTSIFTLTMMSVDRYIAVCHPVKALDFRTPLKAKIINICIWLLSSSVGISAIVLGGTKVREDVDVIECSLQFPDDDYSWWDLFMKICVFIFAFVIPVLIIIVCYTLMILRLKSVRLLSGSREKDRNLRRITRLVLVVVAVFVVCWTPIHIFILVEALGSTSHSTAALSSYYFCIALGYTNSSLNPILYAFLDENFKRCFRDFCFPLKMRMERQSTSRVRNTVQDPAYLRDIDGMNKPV

Mu-type opioid receptor [4] = molecular target: T2, Mu-type opioid receptor; assay: Antagonist activity at human mu opioid receptor expressed in CHO cells by [35S]GTP-gamma-S binding assay; type: functional, cell-based
[5] = molecular target: T1, Delta-type opioid receptor; assay: Antagonist activity at human delta opioid receptor expressed in CHO cells by [35S]GTP-gamma-S binding assay; type: functional, cell-based
[6] = molecular target: T3, Kappa-type opioid receptor; assay: Antagonist activity at human kappa opioid receptor expressed in CHO cells by [35S]GTP-gamma-S binding assay; type: functional, cell-based

T1 sequence (P41143 whole entry): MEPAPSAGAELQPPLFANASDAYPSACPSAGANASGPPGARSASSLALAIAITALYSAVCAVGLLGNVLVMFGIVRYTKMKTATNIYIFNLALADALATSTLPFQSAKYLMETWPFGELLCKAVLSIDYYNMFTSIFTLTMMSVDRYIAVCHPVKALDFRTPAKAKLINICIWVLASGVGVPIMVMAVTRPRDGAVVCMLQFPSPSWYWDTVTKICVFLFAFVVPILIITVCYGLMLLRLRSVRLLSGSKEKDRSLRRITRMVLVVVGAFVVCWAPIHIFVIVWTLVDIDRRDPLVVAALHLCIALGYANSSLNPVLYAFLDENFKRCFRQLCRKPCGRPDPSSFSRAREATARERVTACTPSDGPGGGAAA

Structure (SMILES) | Ki [1] | Ki (Mu-type opioid receptor [2]) | Ki [3] | Ki (Mu-type opioid receptor [4]) | Kb [5] | Ki [6]
NC(=O)c1ccnc(Oc2ccc(CCNCc3ccccc3)cc2)c1 | > 5000 nM | > 2500 nM | > 5000 nM |  |  | 
NC(=O)c1cccc(Oc2ccc(CCNCc3ccccc3)cc2)n1 | > 5000 nM | 643 nM | > 5000 nM |  |  | 
NC(=O)c1ccc(Oc2ccc(CCNCCCc3ccccc3)cc2)nc1 |  |  |  | 18.5 nM | 212 nM | 24.1 nM
CNC(=N)c1ccc(Oc2ccc(CNCCc3ccccc3)cc2)nc1 | 3460 nM | 235 nM | > 5000 nM |  |  | 
NCc1ccc(Oc2ccc(CCNCc3ccccc3)cc2)nc1 | > 5000 nM | > 2500 nM | > 5000 nM |  |  | 
CNC(=O)c1ccc(Oc2ccc(CNCCc3ccccc3)cc2)nc1 | 718 nM | 52.3 nM | > 5000 nM |  |  | 
NC(=O)c1cccnc1Oc1ccc(CCNCc2ccccc2)cc1 | > 5000 nM | > 2500 nM | > 5000 nM |  |  | 
NC(=O)c1ccc(Oc2ccc(CNCc3ccccc3)cc2)nc1 |  |  |  | 4.09 nM | 54.1 nM | 2.47 nM
NC(=O)c1ccc(Oc2ccc(CNCCc3ccccc3)cc2)cc1 |  |  | 15 nM |  |  | 1.22 nM
NC(=O)c1ccc(Oc2ccc(CCNCc3ccccc3)cc2)nc1 | 70.2 nM | 7.44 nM | 136 nM | 2.25 nM | 23.1 nM | 18.4 nM
O=C(O)c1ccc(Oc2ccc(CCNCc3ccccc3)cc2)nc1 | > 5000 nM | > 2500 nM | > 5000 nM |  |  | 
NC(=O)c1ccc(Oc2ccc(CCCNc3ccccc3)cc2)nc1 |  |  |  | > 1000 nM | > 1000 nM | > 1000 nM
CCNC(=O)c1ccc(Oc2ccc(CNCCc3ccccc3)cc2)nc1 | 674 nM | 57.1 nM | 2810 nM |  |  | 
NC(=O)c1ccc(Oc2ccc(CCNCCc3ccccc3)cc2)nc1 |  |  |  | 16.6 nM | 128 nM | 23.3 nM
NS(=O)(=O)c1ccc(Oc2ccc(CCNCc3ccccc3)cc2)cc1 | > 5000 nM | > 2500 nM | > 5000 nM |  |  | 
C[C@H]1CN(CC[C@H](O)C2CCCCC2)CC[C@@]1(C)c1cccc(O)c1 | 4.82 nM |  |  |  | 1.19 nM | 
NC(=O)c1ccc(Oc2ccc(CNCCc3ccccc3)cc2)cn1 | 8.54 nM | 1.77 nM | 69.3 nM | 0.44 nM | 2.86 nM | 9.6 nM
N#Cc1ccc(Oc2ccc(CCNCc3ccccc3)cc2)nc1 | > 5000 nM | 1080 nM | > 5000 nM |  |  | 
CC(C)NC(=O)c1ccc(Oc2ccc(CNCCc3ccccc3)cc2)nc1 | 2410 nM | 52.3 nM | > 5000 nM |  |  | 
NC(=O)c1ccc(Oc2ccc(CCCNCc3ccccc3)cc2)nc1 |  |  |  | 22.3 nM | 496 nM | 45.8 nM
N=C(N)c1ccc(Oc2ccc(CNCCc3ccccc3)cc2)nc1 | 215 nM | 20.6 nM | 1150 nM |  |  | 
O=C(c1ccc(Oc2ccc(CNCCc3ccccc3)cc2)nc1)N1CCCCC1 | > 5000 nM | 389 nM | > 5000 nM |  |  | 
NC(=O)c1ccc(Oc2ccc(NCCCc3ccccc3)cc2)nc1 |  |  |  | > 1000 nM | > 1000 nM | > 1000 nM
NC(=O)c1ccc(Oc2ccc(CNCCc3ccccc3)cc2)nc1 |  | 0.17 nM |  | 0.07 nM |  | 
